From patent publication US5026731A, “Pharmaceutical composition and method of treating psychoses” (Schering Corporation, priority 1990, dated 1991)

Experiments:
D-2 receptor = biological target: T1, D-2 receptor (Bos taurus, UniProt P20288); test: Competitive inhibition binding assay, 3H-spiperone (D2-binding), bovine striatal membranes
T1 construct: Striata were dissected on ice and membranes prepared as described earlier; from tissue; host or cells: bovine striatum (membranes; brains from a local slaughter house)
T1 sequence (P20288 whole entry): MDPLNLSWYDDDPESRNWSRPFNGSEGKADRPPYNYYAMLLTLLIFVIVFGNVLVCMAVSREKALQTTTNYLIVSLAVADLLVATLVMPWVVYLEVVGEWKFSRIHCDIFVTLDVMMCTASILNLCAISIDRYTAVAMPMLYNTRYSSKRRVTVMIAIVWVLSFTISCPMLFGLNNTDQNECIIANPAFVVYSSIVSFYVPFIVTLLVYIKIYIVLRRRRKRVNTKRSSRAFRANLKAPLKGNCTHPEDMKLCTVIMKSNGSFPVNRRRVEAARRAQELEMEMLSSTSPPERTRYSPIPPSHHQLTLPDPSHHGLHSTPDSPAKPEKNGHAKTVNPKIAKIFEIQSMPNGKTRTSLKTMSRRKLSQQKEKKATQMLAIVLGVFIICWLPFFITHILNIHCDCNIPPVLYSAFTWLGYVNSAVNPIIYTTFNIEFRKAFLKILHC
Method: (§1) Compounds of represented by formula I may be synthesized as disclosed herein and diluted in 0.05M Tris buffer, pH 7.4, as required.
(§2) Bovine brains were obtained from a local slaughter house, on ice. […] Briefly, the striata were homogenized in 20 volumes of Tris-HCl (50 mM) buffer, pH 7.4, using a Polytron (Brinkmann) homogenizer, setting 7; membranes were washed by centrigugation (20,000×g) and resuspending in buffer, twice, and finally resuspended in assay buffer (Tris-HCl, 50 mM, pH 7.4, containing 120 mM NaCl, 5 mM KCl, […], 1 mM MgCl2). At least 3-4 different pools of membrane were processed and stored at -80° C.
(§3) For competition studies, several concentration of test drug or standard were included, ranging from 10^-4 to 10^-3. Tubes were incubated, 30 minute incubations at 37° C. were terminated by rapid filtration under vacuum, on to GF/B filters, presoaked in 0.3% polyethyleneamine (PEl), with three 5 ml washes.

dopamine D-1 receptor = biological target: T2, dopamine D-1 receptor (Bos taurus, UniProt Q95136); test: Competitive inhibition binding assay, 3H-Sch 23390 (D1-binding), bovine striatal membranes; details: for Ki: 3H-Sch 23390 binding, bovine striatal membranes, 30 minute at 37° C., Tris-HCl pH 7.4
T2 construct: Striata were dissected on ice and membranes prepared as described earlier; from tissue; host or cells: bovine striatum (membranes; brains from a local slaughter house)
T2 sequence (Q95136 whole entry): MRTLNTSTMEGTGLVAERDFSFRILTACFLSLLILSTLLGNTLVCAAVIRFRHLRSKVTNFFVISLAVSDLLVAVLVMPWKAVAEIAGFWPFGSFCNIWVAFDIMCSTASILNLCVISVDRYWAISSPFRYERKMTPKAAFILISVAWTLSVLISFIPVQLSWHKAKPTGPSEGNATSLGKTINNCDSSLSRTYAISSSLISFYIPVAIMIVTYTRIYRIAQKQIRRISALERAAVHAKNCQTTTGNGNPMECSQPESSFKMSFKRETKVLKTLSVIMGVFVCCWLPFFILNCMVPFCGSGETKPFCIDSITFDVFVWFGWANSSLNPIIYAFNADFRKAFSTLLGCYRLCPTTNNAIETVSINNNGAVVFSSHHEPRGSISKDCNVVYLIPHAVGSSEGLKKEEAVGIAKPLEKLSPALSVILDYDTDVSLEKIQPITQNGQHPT
Method: as §1, §2, §3

[1] = 3H-spiperone binding, bovine striatal membranes, 30 minute at 37° C., Tris-HCl pH 7.4

Ki (D-2 receptor; [1]) [nM] | Ki (dopamine D-1 receptor) [nM] | D1 receptor selectivity (D1 versus D2) (dopamine D-1 receptor; from the Ki data of Table 1, D1 vs D2) | Compound | Ki (D-2 receptor; pH 7.4) [nM]
– | – | – | (+) butaclamol | 1
800 | 0.8 | – | CN1CCc2cc(Cl)c(O)cc2[C@@H](c2ccccc2)C1 [Sch 23390, (R)-(+)-8-chloro-2,3,4,5-tetrahydro-3-methyl-5-phenyl-1H-3-benzazepin-7-olhemimaleate] | –
200000 | 1200 to 2000 | more than 100 fold | CC(=O)Nc1cc(O)ccc1O [2,5-dihydroxyacetanilide] | –
